The record followed here is ChEMBL document CHEMBL6153051, “Synthesis, biological evaluation and validation of IMB-881 derivatives as anti-Gram-negative bacterial agents” (Bioorg Med Chem, 2025).

Data set [1] concerns Escherichia coli. As to the kind of experiment: Antibacterial activity against ESBL(+) producing Escherichia coli ATCC 35218 assessed as bacterial growth inhibition in presence of CAMHB medium by broth microdilution method. Type of data set: functional. For orientation: In broth dilution the organism is exposed to a series of concentrations in liquid medium.
Data set [2] deals with Escherichia coli. Briefly: Antibacterial activity against Escherichia coli ATCC 25922 assessed as bacterial growth inhibition in presence of CAMHB medium by broth microdilution method. The format is functional.
Data set [3] concerns Acinetobacter baumannii. As to the kind of experiment: Antibacterial activity against Acinetobacter baumannii ATCC 19606 assessed as bacterial growth inhibition in presence of CAMHB medium by broth microdilution method. The format is functional.
The subject of the next data set is Klebsiella pneumoniae. Briefly: Antibacterial activity against Klebsiella pneumoniae ATCC […] assessed as bacterial growth inhibition in presence of CAMHB medium by broth microdilution method. Type of data set: functional.
For a further data set, the system named is Pseudomonas aeruginosa. Briefly: Antibacterial activity against Pseudomonas aeruginosa PAO1 assessed as bacterial growth inhibition in presence of CAMHB medium by broth microdilution method. The format is functional.
Data set [4] is described as follows: Cytotoxicity against green monkey Vero cells incubated for 48 hrs by CCK-8 assay. The format is toxicity, cell-based. To be noted: green monkey (Chlorocebus sabaeus). (In general: Tetrazolium assays rely on reduction of a dye to a coloured formazan, in cell work by metabolically active cells.)
A short description of data set [5]: Cytotoxicity against dog MDCK cells incubated for 48 hrs by CCK-8 assay. The format is toxicity, cell-based. The note with it: dog (Canis lupus familiaris).
In data set [6] the test system is Escherichia coli. Briefly: Antibacterial activity against multi-drug resistant Escherichia coli 1 clinical isolate assessed as bacterial growth inhibition in presence of CAMHB medium by broth microdilution method. Type of data set: functional.
For data set [7], the system named is Escherichia coli. As to the kind of experiment: Antibacterial activity against multi-drug resistant Escherichia coli 2 clinical isolate assessed as bacterial growth inhibition in presence of CAMHB medium by broth microdilution method. Type of data set: functional.
For data set [8], the system named is Escherichia coli. As to the kind of experiment: Antibacterial activity against multi-drug resistant Escherichia coli 3 clinical isolate assessed as bacterial growth inhibition in presence of CAMHB medium by broth microdilution method. The format is functional.
The subject of data set [9] is Escherichia coli. As to the kind of experiment: Antibacterial activity against multi-drug resistant Escherichia coli 4 clinical isolate assessed as bacterial growth inhibition in presence of CAMHB medium by broth microdilution method. The format is functional.
Data set [10] has as its system Escherichia coli. Briefly: Antibacterial activity against multi-drug resistant Escherichia coli 5 clinical isolate assessed as bacterial growth inhibition in presence of CAMHB medium by broth microdilution method. The format is functional.
The subject of data set [11] is Acinetobacter baumannii. Briefly: Antibacterial activity against multi-drug resistant Acinetobacter baumannii 1 clinical isolate assessed as bacterial growth inhibition in presence of CAMHB medium by broth microdilution method. Type of data set: functional.
Data set [12] concerns Acinetobacter baumannii. As to the kind of experiment: Antibacterial activity against multi-drug resistant Acinetobacter baumannii 2 clinical isolate assessed as bacterial growth inhibition in presence of CAMHB medium by broth microdilution method. Type of data set: functional.
Data set [13] deals with Acinetobacter baumannii. Briefly: Antibacterial activity against multi-drug resistant Acinetobacter baumannii 3 clinical isolate assessed as bacterial growth inhibition in presence of CAMHB medium by broth microdilution method. The format is functional.
In data set [14] the test system is Acinetobacter baumannii. Briefly: Antibacterial activity against multi-drug resistant Acinetobacter baumannii 4 clinical isolate assessed as bacterial growth inhibition in presence of CAMHB medium by broth microdilution method. The format is functional.
The subject of data set [15] is Acinetobacter baumannii. As to the kind of experiment: Antibacterial activity against multi-drug resistant Acinetobacter baumannii 5 clinical isolate assessed as bacterial growth inhibition in presence of CAMHB medium by broth microdilution method. The format is functional.
A short description of data set [16]: Inhibition of LptA /LptC (unknown origin) interaction expressed in yeast AH109 assessed as growth inhibition incubated for 48 hrs.
The test system of another data set is Saccharomyces cerevisiae. Briefly: Antimicrobial activity against yeast AH109 expressing T/53 assessed as growth inhibition incubated for 48 hrs. The format is functional.
A short description of data set [17]: Selectivity index, ratio of MIC for antimicrobial activity against yeast AH109 expressing T/53 to MIC for inhibition of LptA /LptC (unknown origin) interaction expressed in yeast AH109.
Data set [18] in a line: Binding affinity to His-tagged LptA (unknown origin) assessed as dissociation constant incubated for 60 to 120 s by BLI analysis.
In data set [19] the test system is Escherichia coli. As to the kind of experiment: Antibacterial activity against Escherichia coli ATCC 25922 infected in Galleria mellonella assessed as increase in larvae survival rate measured upto 96 hrs. The format is functional, organism-based. To be noted: dose 1.25-10 mg/kg.
Data set [20] concerns Escherichia coli. Briefly: Antibacterial activity against Escherichia coli ATCC 25922 infected in Galleria mellonella assessed as increase in larvae survival rate at 1.25 mg/kg measured upto 96 hrs relative to control. The format is functional.
Data set [21] has as its system Escherichia coli. As to the kind of experiment: Antibacterial activity against Escherichia coli ATCC 25922 infected in Galleria mellonella assessed as increase in larvae survival rate at 10 mg/kg measured after 6 days post-inoculation relative to control. The format is functional. To be noted: ATCC 25922, 144 h, time 6 day.
For data set [22], the system named is Escherichia coli. Briefly: Induction of morphological changes in Escherichia coli ATCC 25922 assessed as cell elongation in presence of LB medium measured after 1 to 3 hrs by crystal violet staining based light microscopic analysis. The format is functional, organism-based. The note with it: time 1-3 hrs.
Data set [23] concerns Escherichia coli. Briefly: Induction of morphological changes in Escherichia coli ATCC 25922 assessed as appearance of filamentous cell in presence of LB medium measured after 1 to 3 hrs by crystal violet staining based light microscopic analysis. The format is functional, organism-based. The note with it: time 1-3 hrs.
Data set [24] deals with Escherichia coli. As to the kind of experiment: Induction of morphological changes in Escherichia coli ATCC 25922 assessed as appearance of incomplete outer membrane in presence of LB medium incubated for 12 hrs by transmission electron microscopic analysis. Type of data set: functional, organism-based.
For data set [25], the system named is Escherichia coli. Briefly: Induction of outer membrane damage in Escherichia coli ATCC 25922 assessed as increase in EtBr fluorescence intensity in presence of LB medium incubated for 12 hrs by fluorescence plate-reader analysis. Type of data set: functional, organism-based.

Values after ≈ are worked out from the molar mass of the structure shown. Active and inactive are the calls of the source. The calls are words filed in the database; no cut-off is given here.

In general, IC50 refers to the concentration at which inhibition is half-maximal. A word on the Kd: it is the constant that tells how readily two partners part at equilibrium. Take `Clc1cc2c(c3ncccc13)OCN(CCc1ccccc1)C2`: the MIC was above 100 µg/mL in the data set on Escherichia coli [1]; 6.25 µg/mL in the data set with Escherichia coli [2]; 3.12 µg/mL with Acinetobacter baumannii [3]; 100 µg/mL in the data set with Klebsiella pneumoniae; 50 µg/mL in the data set with Pseudomonas aeruginosa; 50 µg/mL with Escherichia coli [6]. Further, the MIC was 50 µg/mL in the data set on Escherichia coli [7]; 50 µg/mL in the data set with Escherichia coli [8]; 50 µg/mL with Escherichia coli [9]; 50 µg/mL in the data set on Escherichia coli [10]; 100 µg/mL with Acinetobacter baumannii [11]; 100 µg/mL in the data set on Acinetobacter baumannii [12]. For the same compound, the MIC in the data set with Acinetobacter baumannii [13] was 100 µg/mL; in the data set on Acinetobacter baumannii [14], 100 µg/mL; in the data set on Acinetobacter baumannii [15] it was 100 µg/mL; in data set [16], 12.5 µg/mL (≈ 38.5 µM); in the data set with Saccharomyces cerevisiae, 25 µg/mL (≈ 77 µM). The IC50 at 48 h in [4] was found to be 14.3 µg/mL (≈ 44.2 µM); in data set [5] it was 7.24 µg/mL (≈ 22.3 µM). Further, the “Selectivity Index” value in [17] amounted to 2. In data set [18], the dissociation constant (Kd) was 1.49 nM.
As to `Clc1ccc(CN2COc3c(cc(Cl)c4cccnc34)C2)cc1`, the MIC worked out at 25 µg/mL in the data set with Escherichia coli [1]; 6.25 µg/mL in the data set on Escherichia coli [2]; 3.12 µg/mL in the data set on Acinetobacter baumannii [3]; 50 µg/mL in the data set with Klebsiella pneumoniae; 25 µg/mL with Pseudomonas aeruginosa; 50 µg/mL with Escherichia coli [6]. Besides, the MIC in the data set with Escherichia coli [7] came to 50 µg/mL; with Escherichia coli [8], 50 µg/mL; in the data set with Escherichia coli [9] it was 50 µg/mL; with Escherichia coli [10], 50 µg/mL; with Acinetobacter baumannii [11], 12.5 µg/mL; with Acinetobacter baumannii [12] it was 6.25 µg/mL. Moreover, the MIC came to 12.5 µg/mL with Acinetobacter baumannii [13]; 12.5 µg/mL in the data set with Acinetobacter baumannii [14]; 6.25 µg/mL in the data set on Acinetobacter baumannii [15]; 12.5 µg/mL (≈ 36.2 µM) in data set [16]; 25 µg/mL (≈ 72.4 µM) in the data set on Saccharomyces cerevisiae. Moreover, the results for the IC50 at 48 h in data set [4] and in [5] were above 50 µg/mL and 47.8 µg/mL (≈ 138 µM), respectively. Moreover, the Activity entry with Escherichia coli [19] and with Escherichia coli [25] was “Dose-dependent-effect” throughout. Also, in the data set on Escherichia coli [20], the survival at 1.25 mg/kg came to 50%. The survival at 10 mg/kg in the data set on Escherichia coli [21] amounted to 80%. In addition, in [17], the “Selectivity Index” value came to 2. Further, in data set [18], the equilibrium dissociation constant (Kd) amounted to 54.4 nM. In addition, the result in the data set with Escherichia coli [22], with Escherichia coli [23] and in the data set with Escherichia coli [24] was Active.
For `Clc1cc2c(c3ncccc13)OCN(CCCc1ccccc1)C2`, the MIC was determined as 25 µg/mL in the data set on Escherichia coli [1]; 6.25 µg/mL in the data set on Escherichia coli [2]; 3.12 µg/mL with Acinetobacter baumannii [3]; 100 µg/mL in the data set with Klebsiella pneumoniae; 50 µg/mL with Pseudomonas aeruginosa; 50 µg/mL in the data set with Escherichia coli [6]. For the same compound, the MIC with Escherichia coli [7] was determined as 50 µg/mL; in the data set with Escherichia coli [8], 50 µg/mL; in the data set with Escherichia coli [9], 50 µg/mL; in the data set on Escherichia coli [10], 50 µg/mL; with Acinetobacter baumannii [11], 6.25 µg/mL; with Acinetobacter baumannii [12], 12.5 µg/mL. Further, the MIC in the data set with Acinetobacter baumannii [13] is 12.5 µg/mL; in the data set on Acinetobacter baumannii [14] it was 12.5 µg/mL; in the data set with Acinetobacter baumannii [15] it was 6.25 µg/mL; in data set [16] it was 6.25 µg/mL (≈ 18.4 µM); in the data set on Saccharomyces cerevisiae it was 25 µg/mL (≈ 73.8 µM). Further, the IC50 at 48 h in [4] was above 50 µg/mL; in data set [5], 43.8 µg/mL (≈ 129 µM). For the same compound, the Activity result in the data set with Escherichia coli [19] and in the data set on Escherichia coli [25] was “Dose-dependent-effect” each time. Besides, the survival at 1.25 mg/kg with Escherichia coli [20] was 60%. The survival at 10 mg/kg in the data set on Escherichia coli [21] turned out to be 70%. In [17], the “Selectivity Index” value worked out at 4. In addition, in data set [18], the dissociation constant Kd was found to be 32.2 nM. Besides, the outcome in the data set on Escherichia coli [22], in the data set with Escherichia coli [23] and in the data set on Escherichia coli [24] was Active.
Take `Fc1cc2c(c3ncccc13)OCN(CCc1ccc(Cl)cc1)C2`: the MIC in the data set with Escherichia coli [1] was 25 µg/mL; with Escherichia coli [2], 6.25 µg/mL; in the data set on Acinetobacter baumannii [3], 25 µg/mL; in the data set with Klebsiella pneumoniae it was 50 µg/mL; with Pseudomonas aeruginosa, 100 µg/mL; in the data set on Escherichia coli [6], 50 µg/mL. Moreover, the MIC in the data set with Escherichia coli [7] was 50 µg/mL; with Escherichia coli [8] it was 50 µg/mL; in the data set with Escherichia coli [9], 50 µg/mL; in the data set with Escherichia coli [10], 50 µg/mL; in the data set with Acinetobacter baumannii [11] it was 100 µg/mL; with Acinetobacter baumannii [12] it was 50 µg/mL. Also, the MIC in the data set on Acinetobacter baumannii [13], in the data set on Acinetobacter baumannii [14] and with Acinetobacter baumannii [15] was 100 µg/mL in each case. For the same compound, the figures for the IC50 at 48 h in data set [4] and in [5] were above 50 µg/mL and 29.2 µg/mL (≈ 85.2 µM), respectively.
